Experimental data: patent US10660336B2 (priority 2014, dated 2020)
Like-named read-outs stand apart in the source and are kept apart here.

What was measured:
[1] = tested on: pepper mottle virus (PepMoV); set-up: species or system Nicotiana benthamiana; conditions: in vivo
[2] = tested on: tobacco mosaic virus; experiment: Half leaf method, anti-viral activity against tobacco mosaic virus (local lesion count); format: in vivo; conditions: concentration of 5 ppm or above; Nicotiana tabacum cv. Xanthi nc half leaf; 3 days after inoculation
Experimental: A half leaf method was performed to determine an anti-viral activity against tobacco mosaic virus, which was provided from the plant virus genebank (PVGB), Seoul women's university, of the compounds which was determined to have the anti-viral activity against the pepper mottle virus in Example 3. The half leaf method utilizes features of producing black spots due to local lesions around the infected part by tobacco mosaic virus in Nicotiana tabacum cv. Xanthi nc which is a local lesion host. Top 3 leaves and 4 leaves of 7-8 normal leaves of the local lesion host were taken and carborundum was evenly sprayed throughout the leaves. A compound 1 (Trichodermin) sample at test concentrations dissolved in DMSO and the tobacco mosaic virus solution were mixed. Right half leaf of the leaf of the Nicotiana tabacum cv. Xanthi nc was inoculated with this mixture and the other left half leaf was inoculated with tobacco mosaic virus solution (control) using cotton swabs. After petiole of the leaf of the Nicotiana tabacum cv. […] After 3 days of inoculation, the number of local lesions was counted and 100-400 of lesions of […] control half leaf was only applied. Activity rate using the number of lesions was calculated by the following equation. […]

[3] = tested on: pepper mottle virus (PepMoV); set-up: species or system Capsicum anuum L.; conditions: in vivo

## CC(=O)O[C@@H]1C[C@H]2O[C@@H]3C=C(C)CC[C@]3(C)[C@]1(C)[C@]21CO1 [Trichodermin]
[1]
  spreading rate of the pepper mottle virus (green fluorescent protein in upper leaves under UV, viral RNA and coat protein): inhibits spreading rate of the pepper mottle virus
[2]
  anti-viral activity against the tobacco mosaic virus (control rate from number of local lesions): ≥ 97%
[3]
  spreading rate of the pepper mottle virus (green fluorescent protein in upper leaves under UV, viral RNA and coat protein): inhibits spreading rate of the pepper mottle virus
